From patent US20260053861A1, “CELL COMPOSITIONS AND METHODS OF USING THE SAME” (THE REGENTS OF THE UNIVERSITY OF CALIFORNIA, priority 2022, published 2026)
Where a name gives a salt, the structure may show the parent alone.

system: hPSC-SCs; conditions: not given

SMILES	z.score.t
C/C=C1/C[N@+]2(C)CC[C@]34C(=C(C=O)[C@H]1C[C@@H]32)Nc1ccccc14.[Cl-] [Fluorocurarine chloride]	1.364
CCCCc1ccc(C(=O)O)nc1 [Fusaric acid]	1.345
NCC1(CC(=O)O)CCCCC1 [Gabapentin]	−0.496
COc1ccc2c3c1O[C@H]1C[C@@H](O)C=C[C@@]31CCN(C)C2 [Galanthamine hydrobromide]	0.8023
C=C[C@]12CN(C)[C@@H]3[C@H]4CO[C@H](C[C@H]41)[C@]1(C(=O)Nc4ccccc41)[C@@H]32 [Gelsemine]	1.601
C[C@@H]1C(=O)O[C@H]2C[C@@]34[C@H]5C[C@@H](C(C)(C)C)[C@]36[C@@H](OC(=O)[C@@H]6O)O[C@@]4(C(=O)O5)[C@]21O [Ginkgolide A]	1.034
O=C(OCC(O)CO)c1ccccc1Nc1ccnc2cc(Cl)ccc12 (stereo not drawn) [Glafenine hydrochloride]	−0.727
CCC1(c2ccc(N)cc2)CCC(=O)NC1=O (stereo not drawn) [Glutethimide, para-amino]	0.1149
Cc1cc2c(C(C)C)c(O)c(O)c(C=O)c2c(O)c1-c1c(C)cc2c(C(C)C)c(O)c(O)c(C=O)c2c1O [Gossypol]	−2.368
COc1ccc2c3c([nH]c2c1)C(C)=NCC3.Cl.O.O [Harmaline hydrochloride dihydrate]	1.306
COc1ccc2c(c1)[nH]c1c(C)nccc12.Cl [Harmine hydrochloride]	−1.122
Cc1[nH]ccc2c1[nH]c1cc(=O)ccc12 [Harmol hydrochloride monohydrate]	−0.7233
CO[C@H](C)[C@](O)(C(=O)OCC1=CCN2CC[C@H](O)[C@@H]12)C(C)C [Heliotrine]	−0.3023
C[N+]1(C)CCOC(O)(c2ccc(-c3ccc(C4(O)C[N+](C)(C)CCO4)cc3)cc2)C1.[Br-].[Br-] (stereo not drawn) [Hemicholinium bromide]	−0.07901
COc1ccc([C@@H]2CC(=O)c3c(O)cc(O[C@@H]4O[C@H](CO[C@@H]5O[C@@H](C)[C@H](O)[C@@H](O)[C@H]5O)[C@@H](O)[C@H](O)[C@H]4O)cc3O2)cc1O [Hesperidin]	0.2399
C[N+](C)(C)CCCCCC[N+](C)(C)C.O.O.[Br-].[Br-] [Hexamethonium dibromide dihydrate]	0.7913

same assay, conditions: HTS viability of hPSC-SCs in the presence of 30 mM glucose; Prestwick library; Table S4

SMILES	z.score.t
O=C(NCC1CCCCN1)c1cc(OCC(F)(F)F)ccc1OCC(F)(F)F (stereo not drawn) [Flecainide acetate]	0.4105
CS(=O)(=O)c1ccc([C@@H](O)[C@@H](CF)NC(=O)C(Cl)Cl)cc1 [Florfenicol]	0.5365
Cc1onc(-c2c(F)cccc2Cl)c1C(=O)N[C@@H]1C(=O)N2[C@@H]1SC(C)(C)[C@@H]2C(=O)O [Flucloxacillin sodium]	−1.056
Nc1[nH]c(=O)ncc1F [Flucytosine]	−0.05622
CC(=O)OCC(=O)[C@@]1(O)CC[C@H]2[C@@H]3CCC4=CC(=O)CC[C@]4(C)[C@@]3(F)[C@@H](O)C[C@@]21C [Fludrocortisone acetate]	1.278
O=C(O)c1ccccc1Nc1cccc(C(F)(F)F)c1 [Flufenamic acid]	−1.003
Fc1ccc(C(c2ccc(F)cc2)N2CCN(C/C=C/c3ccccc3)CC2)cc1 [Flunarizine dihydrochloride]	−1.898
CC1(C)O[C@@H]2C[C@H]3[C@@H]4C[C@H](F)C5=CC(=O)C=C[C@]5(C)[C@H]4[C@@H](O)C[C@]3(C)[C@]2(C(=O)CO)O1 [Flunisolide]	1.612
Cc1c(Nc2ncccc2C(=O)O)cccc1C(F)(F)F [Flunixin meglumine]	1.117
CC(=O)OCC(=O)[C@@]12OC(C)(C)O[C@@H]1C[C@H]1[C@@H]3C[C@H](F)C4=CC(=O)C=C[C@]4(C)[C@@]3(F)[C@@H](O)C[C@@]12C [Fluocinonide]	0.2803
CC(=O)[C@@]1(O)CC[C@H]2[C@@H]3C[C@H](C)C4=CC(=O)C=C[C@]4(C)[C@@]3(F)[C@@H](O)C[C@@]21C [Fluorometholone]	−0.9741
CNCCC(Oc1ccc(C(F)(F)F)cc1)c1ccccc1 (stereo not drawn) [Fluoxetine hydrochloride]	−0.865
OCCN1CCN(CCCN2c3ccccc3Sc3ccc(C(F)(F)F)cc32)CC1 [Fluphenazine dihydrochloride]	−1.847
CC1(C)O[C@@H]2C[C@H]3[C@@H]4C[C@H](F)C5=CC(=O)CC[C@]5(C)[C@H]4[C@@H](O)C[C@]3(C)[C@]2(C(=O)CO)O1 [Flurandrenolide]	0.4741
CC(C(=O)O)c1ccc(-c2ccccc2)c(F)c1 (stereo not drawn) [Flurbiprofen]	1.824
O=C1NCN(c2ccccc2)C12CCN(CCCC(c1ccc(F)cc1)c1ccc(F)cc1)CC2 [Fluspirilen]	−1.399
CC(C)C(=O)Nc1ccc([N+](=O)[O-])c(C(F)(F)F)c1 [Flutamide]	0.5856
CCC(=O)O[C@]1(C(=O)SCF)[C@H](C)C[C@H]2[C@@H]3C[C@H](F)C4=CC(=O)C=C[C@]4(C)[C@@]3(F)[C@@H](O)C[C@@]21C [Fluticasone propionate]	0.1543
CC(C)n1c(/C=C/C(O)CC(O)CC(=O)O)c(-c2ccc(F)cc2)c2ccccc21 (stereo not drawn) [Fluvastatin sodium salt]	−0.4538

SMILES	z.score.t
COCCCC/C(=N\OCCN)c1ccc(C(F)(F)F)cc1 [Fluvoxamine maleate]	0.03957
Nc1nc2ncc(CNc3ccc(C(=O)N[C@@H](CCC(=O)O)C(=O)O)cc3)nc2c(=O)[nH]1 [Folic acid]	0.7312
Nc1nc(=O)c2c([nH]1)NCC(CNc1ccc(C(=O)N[C@@H](CCC(=O)[O-])C(=O)[O-])cc1)N2C=O.[Ca+2] (stereo partly drawn) [Folinic acid calcium salt]	0.1244
O=C(O)c1ccccc1OP(=O)(O)O [Fosfosal]	0.495
O=C1OC(CN2CCOCC2)CN1/N=C/c1ccc([N+](=O)[O-])o1 (stereo not drawn) [Furaltadone hydrochloride]	2.34
NS(=O)(=O)c1cc(C(=O)O)c(NCc2ccco2)cc1Cl [Furosemide]	−1.306
CC(=O)O[C@H]1C[C@@]2(C)[C@@H](C[C@@H](O)[C@H]3[C@@]4(C)CC[C@@H](O)[C@@H](C)[C@@H]4CC[C@@]32C)/C1=C(\CCC=C(C)C)C(=O)O [Fusidic acid sodium salt]	0.6203
Fc1ccc(C(OCCN2CCN(CCCc3ccccc3)CC2)c2ccc(F)cc2)cc1 [GBR 12909 dihydrochloride]	−1.092
COc1ccc(-c2ccc(=N)n(CCCC(=O)O)n2)cc1 [Gabazine]	1.252
CCOC(=O)c1ccc(OC(=O)CCCCCN=C(N)N)cc1.CS(=O)(=O)O [Gabexate mesilate]	0.5136
CC[N+](CC)(CC)CCOc1cccc(OCC[N+](CC)(CC)CC)c1OCC[N+](CC)(CC)CC [Gallamine triethiodide]	−0.1538
Nc1nc(O)c2ncn(COC(CO)CO)c2n1 [Ganciclovir]	−0.5992
Cc1ccc(C)c(OCCCC(C)(C)C(=O)O)c1 [Gemfibrozil]	0.4486
C=C1C[C@]23C[C@@]1(O)CC[C@H]2[C@@]12C=C[C@H](O)[C@@](C)(C(=O)O1)[C@H]2[C@@H]3C(=O)O [Gibberellic acid]	−0.3452
COc1ccc(Cl)cc1C(=O)NCCc1ccc(S(=O)(=O)NC(=O)NC2CCCCC2)cc1 [Glibenclamide]	−0.7776
Cc1ccc(S(=O)(=O)NC(=O)NN2CC3CCCC3C2)cc1 (stereo not drawn) [Gliclazide]	−0.03629
CCC1=C(C)CN(C(=O)NCCc2ccc(S(=O)(=O)NC(=O)N[C@H]3CC[C@H](C)CC3)cc2)C1=O [Glimepiride]	1.252
Cc1cnc(C(=O)NCCc2ccc(S(=O)(=O)NC(=O)NC3CCCCC3)cc2)cn1 [Glipizide]	1.43
COc1ccc2c(c1)C(=O)N(CCc1ccc(S(=O)(=O)NC(=O)NC3CCCCC3)cc1)C(=O)C2(C)C [Gliquidone]	2.369

SMILES	z.score.t
C[C@H](CCC(=O)NCC(=O)O)[C@H]1CC[C@H]2[C@@H]3[C@H](O)C[C@@H]4C[C@H](O)CC[C@]4(C)[C@H]3C[C@H](O)[C@]12C [Glycocholic acid]	−0.8478
C[N+]1(C)CCC(OC(=O)C(O)(c2ccccc2)C2CCCC2)C1 (stereo not drawn) [Glycopyrrolate]	−0.1913
CN(C)Cc1c[nH]c2ccccc12 [Gramine]	1.018
Cn1c(-c2ccc3c(c2)OCO3)cc(=O)c2ccccc21 [Graveoline]	0.495
COC1=CC(=O)C[C@@H](C)[C@]12Oc1c(Cl)c(OC)cc(OC)c1C2=O [Griseofulvin]	−0.636
COc1ccccc1OCC(O)CO (stereo not drawn) [Guaifenesin]	−0.3023
N=C(N)N/N=C/c1c(Cl)cccc1Cl [Guanabenz acetate]	0.5179
N=C(N)NC(=O)Cc1c(Cl)cccc1Cl [Guanfacine hydrochloride]	0.9047
CC1(C)O[C@@H]2C[C@H]3[C@@H]4CCC5=CC(=O)CC[C@]5(C)[C@@]4(F)[C@@H](O)C[C@]3(C)[C@]2(C(=O)CCl)O1 [Halcinonide]	1.238
CCCCN(CCCC)CCC(O)c1cc2c(Cl)cc(Cl)cc2c2cc(C(F)(F)F)ccc12 (stereo not drawn) [Halofantrine hydrochloride]	−1.422
O=C(CCCN1CCC(O)(c2ccc(Cl)cc2)CC1)c1ccc(F)cc1 [Haloperidol]	−1.111
CC1=NCCc2c1[nH]c1cc(O)ccc21.Cl.O.O [Harmalol hydrochloride dihydrate]	−0.7953
C[C@]1(OC(=O)/C=C/c2ccccc2)C[C@@H](O)[C@]2(O)C=CO[C@@H](O[C@@H]3O[C@H](CO)[C@@H](O)[C@H](O)[C@H]3O)[C@@H]21 [Harpagoside]	−0.8347
CC(N)CCCC(C)(C)O (stereo not drawn) [Heptaminol hydrochloride]	0.7415
COc1ccc([C@@H]2CC(=O)c3c(O)cc(O)cc3O2)cc1O [Hesperetin]	1.785
CC[C@H](c1ccc(O)cc1)[C@@H](CC)c1ccc(O)cc1 [Hexestrol]	0.1469
CCCCC(CC)CN1CN(CC(CC)CCCC)CC(C)(N)C1 (stereo not drawn) [Hexetidine]	−1.372
CC(CNC1CCCCC1)OC(=O)c1ccccc1 (stereo not drawn) [Hexylcaine hydrochloride]	−0.6194
